Source: patent US8153631B2, “Triazole compounds and uses related thereto” (Amgen Inc., priority 2003, dated 2012)

Target: T1, human HSD1 (recombinant HSD1) (Homo sapiens, UniProt P28845)
T1 construct: made in house
Assay: In vitro HSD1 activity inhibitory action, SPA of cortisone to cortisol conversion
Type: biochemical
Details: recombinant human HSD1 0.1 μg/ml, 500 μM NADPH, 16 nM 3H cortisone, room temperature 90 min, read-out: hHSD1 IC50
Experimental: In Vitro HSD1 (Hydroxysteroid Dehydrogenase 1) Activity Inhibitory Action
The HSD1 inhibitory activity was examined by quantitative determination by an SPA (scintillation proximity assay) system of the suppressive action on the conversion from cortisone to cortisol using human HSD1 (hereinafter recombinant HSD1) expressed using a baculo-virus system as an enzyme source. For the reaction, a reagent was added to a 96 well plate (96 well Opti-plates™-96 (Packard)) to the following final concentration and a volume of 100 μl was reacted at room temperature for 90 min. The reaction solution used was 0.1 μg/ml recombinant HSD1, 500 μM NADPH, 16 nM ^3H cortisone (Amersham Biosciences, 1.78 Tbq/mol) dissolved in 0.1% BSA (Sigma)-containing PBS and the test drug was 2 μl of a compound solution (dissolved in DMSO). After 90 min, the reaction was stopped by adding PBS (40 μl, containing 0.1% BSA (Sigma)) containing 0.08 μg of anti-cortisol mouse monoclonal antibody (East Coast Biologics), 365 μg SPA PVT mouse antibody-binding beads (Amersham Biosciences) and 175 μM carbenoxolone (Sigma) to the reaction solution. After the completion of the reaction, the plate was incubated overnight at room temperature and the radioactivity was measured by Topcount (Packard). For control, the value (0% inhibition) of the well containing 2 μl of DMSO instead of the test drug was used, and for positive control, the value (100% inhibition) of the well containing carbenoxolone instead of the test drug at the final concentration of 50 μM was used. The inhibition (%) of the test drug was calculated by ((value of control−value of test drug)/(value of control−value of positive control))×100 (%). The IC50 value was analyzed using a computer-based curve fitting soft.

T1 sequence (P28845 whole entry): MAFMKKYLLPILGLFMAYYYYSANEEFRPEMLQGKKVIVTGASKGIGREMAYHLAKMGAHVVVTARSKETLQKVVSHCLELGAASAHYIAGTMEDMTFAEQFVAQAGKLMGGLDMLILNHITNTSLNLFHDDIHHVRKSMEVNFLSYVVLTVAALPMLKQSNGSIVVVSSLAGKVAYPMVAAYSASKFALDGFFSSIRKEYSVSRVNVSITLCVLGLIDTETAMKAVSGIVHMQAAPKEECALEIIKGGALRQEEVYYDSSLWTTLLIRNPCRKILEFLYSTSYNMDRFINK

Which IC50 does the source give for `CC(C)n1c(-c2ccc(Cl)cc2)nnc1C1(c2ccc(F)cc2)CC1` [Ex. 1-106] here?
Its IC50 is < 0.01 µM.

`Cn1c(-c2ccc(Cl)cc2Cl)nnc1C1(c2ccc(F)cc2)CC1` [Ex. 1-107] was tested. Which IC50 did it give?
Its IC50 is < 0.01 µM.

`Cn1c(-c2ccc(N3CCC(CO)CC3)cc2Cl)nnc1C1(c2ccccc2)CC1` [Ex. 1-108] was tested. Which IC50 did it give?
The IC50 was < 0.01 µM.

`Cn1c(-c2ccc(N3CCC(C(N)=O)CC3)cc2Cl)nnc1C1(c2ccccc2)CC1` [Ex. 1-109] was tested. Which IC50 did it give?
Its IC50 is < 0.01 µM.

With `COCCNC(=O)C1CCN(c2ccc(-c3nnc(C4(c5ccccc5)CC4)n3C)c(Cl)c2)CC1` [Ex. 1-110] as the compound, how does the IC50 read?
The IC50 was < 0.01 µM.

Which IC50 does the source give for `Cn1c(C2(c3ccccc3)CC2)nnc1[C@H]1CC[C@H](C(=O)O)CC1` [Ex. 1-111] here?
Its IC50 is 0.01 to 1 µM.

How did the IC50 turn out when `Cn1c(C2(c3ccccc3)CC2)nnc1[C@H]1CC[C@H](C(N)=O)CC1` [Ex. 1-112] was run?
Its IC50 is < 0.01 µM.

For `Cn1c(-c2ccc(N3CCC(C(=O)N4CCCCC4)CC3)cc2Cl)nnc1C1(c2ccccc2)CC1` [Ex. 1-113], which IC50 is on record?
Its IC50 is < 0.01 µM.

How did the IC50 turn out when `Cn1c(-c2ccc(N3CCC(C(=O)N4CCOCC4)CC3)cc2Cl)nnc1C1(c2ccccc2)CC1` [Ex. 1-114] was run?
The IC50 was < 0.01 µM.

For `CN(C)C(=O)C1CCN(c2ccc(-c3nnc(C4(c5ccccc5)CC4)n3C)c(Cl)c2)CC1` [Ex. 1-115], which IC50 is on record?
Its IC50 is < 0.01 µM.

With `Cn1c(-c2ccc(N3CCC(C(=O)NCC(F)(F)F)CC3)cc2Cl)nnc1C1(c2ccccc2)CC1` [Ex. 1-116] as the compound, how does the IC50 read?
Its IC50 is < 0.01 µM.

How did the IC50 turn out when `CONC(=O)Nc1ccc(-c2nnc(C3(c4ccccc4)CC3)n2C)c(Cl)c1` [Ex. 1-117] was run?
The IC50 was < 0.01 µM.

`Cn1c(-c2ccc(N3CCOC3=O)cc2Cl)nnc1C1(c2ccc(F)cc2)CC1` [Ex. 1-118] was tested. Which IC50 did it give?
Its IC50 is < 0.01 µM.

`Cn1c(-c2ccc(OCCO)cc2Cl)nnc1C1(c2ccccc2)CC1` [Ex. 1-119] was tested. Which IC50 did it give?
The IC50 was < 0.01 µM.

`Cn1c(-c2ccc(NCCO)cc2Cl)nnc1C1(c2ccc(F)cc2)CC1` [Ex. 1-120] was tested. Which IC50 did it give?
Its IC50 is < 0.01 µM.

How did the IC50 turn out when `Cn1c(C2(c3ccccc3)CC2)nnc1C1(c2ccccc2)CC1` [Ex. 1-121] was run?
Its IC50 is < 0.01 µM.

Which IC50 does the source give for `Cn1c(-c2cc(Cl)ccc2Cl)nnc1C1(c2ccc(F)cc2)CC1` [Ex. 1-122] here?
The IC50 was < 0.01 µM.

`Cn1c(-c2ccc(Cl)cc2Cl)nnc1C1(c2ccc(F)cc2)CCCC1` [Ex. 1-123] was tested. Which IC50 did it give?
Its IC50 is < 0.01 µM.

For `COc1cc(C(=O)O)ccc1-c1nnc(C2(c3ccccc3)CC2)n1C` [Ex. 1-124], which IC50 is on record?
The IC50 was 0.01 to 1 µM.

How did the IC50 turn out when `COc1cc(C(N)=O)ccc1-c1nnc(C2(c3ccccc3)CC2)n1C` [Ex. 1-125] was run?
The IC50 was < 0.01 µM.

With `Cn1c(-c2ccc(C(=O)O)cc2Cl)nnc1C1(c2ccc(F)cc2)CC1` [Ex. 1-126] as the compound, how does the IC50 read?
The IC50 was 0.01 to 1 µM.

For `Cn1c(-c2ccc(C(N)=O)cc2Cl)nnc1C1(c2ccc(F)cc2)CC1` [Ex. 1-127], which IC50 is on record?
Its IC50 is < 0.01 µM.

`Cn1c(-c2ccc(OCC(F)(F)F)cc2Cl)nnc1C1(c2ccccc2)CC1` [Ex. 1-129] was tested. Which IC50 did it give?
Its IC50 is < 0.01 µM.

Which IC50 does the source give for `Cn1c(-c2ccc(OCCN)cc2Cl)nnc1C1(c2ccccc2)CC1` [Ex. 1-130] here?
Its IC50 is 0.01 to 1 µM.

How did the IC50 turn out when `Cn1c(-c2ccc(N3CCC(O)C3)cc2Cl)nnc1C1(c2ccccc2)CC1` (centres unmarked) [Ex. 1-131] was run?
Its IC50 is < 0.01 µM.

How did the IC50 turn out when `CC(C)n1c(-c2ccc(C(N)=O)cc2)nnc1C1(c2ccccc2)CC1` [Ex. 1-132] was run?
The IC50 was < 0.01 µM.

`Cn1c(-c2ccccc2Cl)nnc1C1(c2ccc(F)cc2)CC1` [Ex. 1-134] was tested. Which IC50 did it give?
Its IC50 is < 0.01 µM.

With `CN(O)C(=O)Nc1ccc(-c2nnc(C3(c4ccccc4)CC3)n2C)c(Cl)c1` [Ex. 1-137] as the compound, how does the IC50 read?
Its IC50 is < 0.01 µM.

For `Cn1c(-c2ccc(C(N)=O)cc2Cl)nnc1C1(c2cccs2)CC1` [Ex. 1-144], which IC50 is on record?
Its IC50 is < 0.01 µM.

Which IC50 does the source give for `CC(C)n1c(-c2ccc(C(N)=O)cc2)nnc1C1(c2ccc(F)cc2)CC1` [Ex. 1-145] here?
Its IC50 is < 0.01 µM.

With `CC(C)n1c(-c2ccc(N3CCOC3=O)cc2)nnc1C1(c2ccc(F)cc2)CC1` [Ex. 1-149] as the compound, how does the IC50 read?
Its IC50 is < 0.01 µM.

With `COC(=O)Nc1ccc(Cl)c(-c2nnc(C3(c4ccc(F)cc4)CC3)n2C)c1` [Ex. 1-150] as the compound, how does the IC50 read?
The IC50 was < 0.01 µM.

With `CONC(=O)Nc1ccc(-c2nnc(C3(c4ccc(F)cc4)CC3)n2C)c(Cl)c1` [Ex. 1-152] as the compound, how does the IC50 read?
The IC50 was < 0.01 µM.

With `CONC(=O)Nc1ccc(-c2nnc(C3(c4ccc(F)cc4)CC3)n2C(C)C)cc1` [Ex. 1-153] as the compound, how does the IC50 read?
Its IC50 is < 0.01 µM.

Which IC50 does the source give for `CC(C)n1c(-c2cccc(N3CCOC3=O)c2)nnc1C1(c2ccc(F)cc2)CC1` [Ex. 1-154] here?
The IC50 was < 0.01 µM.
